Results: ChEMBL document CHEMBL5728734, “2,6-dioxaspiro [4,5] decane derivatives and preparation method therefor and pharmaceutical applications thereof” (2021)

The compounds below were run against Mu-type opioid receptor (Homo sapiens, UniProt P35372) (assay: Detection of MOR cAMP Agonist Activity: The experiment was performed using a cAMP detection kit from Cisbio (Cisbio #62AM4PEJ).).
Sequence of Mu-type opioid receptor (P35372 whole entry): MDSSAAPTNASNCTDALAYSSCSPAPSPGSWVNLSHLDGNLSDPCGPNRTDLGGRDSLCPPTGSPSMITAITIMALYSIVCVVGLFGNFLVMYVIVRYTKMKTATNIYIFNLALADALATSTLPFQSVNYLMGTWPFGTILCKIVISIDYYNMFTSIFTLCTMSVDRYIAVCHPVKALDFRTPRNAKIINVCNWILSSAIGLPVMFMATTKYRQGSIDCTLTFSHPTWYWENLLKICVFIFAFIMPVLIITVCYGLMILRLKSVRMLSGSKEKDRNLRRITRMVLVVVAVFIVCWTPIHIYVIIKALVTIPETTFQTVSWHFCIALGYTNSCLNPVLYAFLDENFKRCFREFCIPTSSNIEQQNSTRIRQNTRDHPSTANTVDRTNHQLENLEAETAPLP
In the case of Cc1cccc(CNCC[C@@]2(c3ccc(F)cn3)CCO[C@]3(CCOC3)C2)c1, the EC50 is reported as 0.1 nM.
Work on c1ccc([C@]2(CCNCc3scc4c3CCC4)CCO[C@]3(CCOC3)C2)nc1 yielded an EC50 of 0.47 nM.
In the case of Fc1ccc([C@]2(CCNCc3scc4c3CCC4)CCO[C@]3(CCOC3)C2)nc1, the EC50 is reported as 0.1 nM.
Compound c1ccc([C@]2(CCNCc3cc4c(s3)CCC4)CCOC3(CCCC3)C2)nc1 has an EC50 of 0.9 nM.
c1ccc([C@]2(CCN[C@H]3CCc4ccccc43)CCO[C@]3(CCOC3)C2)nc1 showed an EC50 of 4 nM.
